Assay results as given in ChEMBL document CHEMBL1201862, “PubChem BioAssay data set” (2004).
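All cell lines were grown in 96-well plates and treated with compound for 48 hours. At the GI50, growth is halved.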 Active and inactive are the calls of the source. No stated cut-off is given here; in the data, active = GI50 up to about 1.1 µM and inactive = higher.

How the values were obtained:
Assay in all cases: NCI-60 cell line screen, 48 h
MOLT-4 = test system: MOLT-4
Malme-3M = test system: Malme-3M
SNB-19 = test system: SNB-19
MCF7 = test system: MCF7
SR = test system: SR
NCI-H460 = test system: NCI-H460
SK-MEL-28 = test system: SK-MEL-28
T47D = test system: T47D
BT-549 = test system: BT-549
SN12C = test system: SN12C
RXF 393 = test system: RXF 393
SF-268 = test system: SF-268
CCRF-CEM = test system: CCRF-CEM
HCC 2998 = test system: HCC 2998
SK-MEL-5 = test system: SK-MEL-5
RPMI-8226 = test system: RPMI-8226
HCT-116 = test system: HCT-116
SW-620 = test system: SW-620
UACC-257 = test system: UACC-257

| Structure (SMILES) | GI50 (MOLT-4) | GI50 (Malme-3M) | GI50 (SNB-19) | GI50 (MCF7) | GI50 (SR) | GI50 (NCI-H460) | GI50 (SK-MEL-28) | GI50 (T47D) | GI50 (BT-549) | GI50 (SN12C) | GI50 (RXF 393) | GI50 (SF-268) | GI50 (CCRF-CEM) | GI50 (HCC 2998) | GI50 (SK-MEL-5) | GI50 (RPMI-8226) | GI50 (HCT-116) | GI50 (SW-620) | GI50 (UACC-257) |
| --- | --- | --- | --- | --- | --- | --- | --- | --- | --- | --- | --- | --- | --- | --- | --- | --- | --- | --- | --- |
| COc1cc2nc(-c3c(F)cccc3F)n(Cc3c(F)cccc3F)c2cc1Cc1c(F)cccc1F | 6.84 µM (inactive) | > 24.8 µM (inactive) | > 100 µM (inactive) | 3.47 µM (inactive) | > 20.4 µM (inactive) | 15.3 µM (inactive) | 0.35 µM (active) | 4.05 µM (inactive) | > 71.8 µM (inactive) | > 69.8 µM (inactive) | 1.55 µM (inactive) | > 72.1 µM (inactive) | > 100 µM (inactive) | 20.6 µM (inactive) | 6.28 µM (inactive) | 7.71 µM (inactive) | > 26.7 µM (inactive) | > 100 µM (inactive) | – |
| c1ccc2c3c(ccc2c1)CSCc1ccc2ccccc2c1-3 | 36.6 µM (inactive) | > 100 µM (inactive) | > 100 µM (inactive) | > 100 µM (inactive) | 33 µM (inactive) | – | > 100 µM (inactive) | > 100 µM (inactive) | > 100 µM (inactive) | > 100 µM (inactive) | > 100 µM (inactive) | > 100 µM (inactive) | > 100 µM (inactive) | > 100 µM (inactive) | > 100 µM (inactive) | > 100 µM (inactive) | > 100 µM (inactive) | – | 43.5 µM (inactive) |
| CC(=O)Oc1cccc2c(/C=N/NC(N)=S)ncc(C)c12 | 0.385 µM (active) | 1.26 µM (inactive) | 1.2 µM (inactive) | 0.603 µM (active) | 0.331 µM (active) | 0.966 µM (active) | 13.2 µM (inactive) | 1.47 µM (inactive) | 1.28 µM (inactive) | 0.863 µM (active) | 4.15 µM (inactive) | 0.357 µM (active) | 0.422 µM (active) | 0.818 µM (active) | 1.38 µM (inactive) | 1.56 µM (inactive) | 1.96 µM (inactive) | 4.59 µM (inactive) | 5.51 µM (inactive) |
| O=C(/C=c1\oc(=O)/c(=C/C(=O)c2ccc(Cl)cc2)oc1=O)c1ccc(Cl)cc1 | 23.8 µM (inactive) | 51.3 µM (inactive) | > 100 µM (inactive) | > 100 µM (inactive) | 52.6 µM (inactive) | > 100 µM (inactive) | > 100 µM (inactive) | 53.7 µM (inactive) | 10.4 µM (inactive) | > 100 µM (inactive) | 60.7 µM (inactive) | 97.3 µM (inactive) | 39.4 µM (inactive) | > 100 µM (inactive) | > 100 µM (inactive) | > 100 µM (inactive) | > 100 µM (inactive) | – | > 100 µM (inactive) |
| CSC1=C(C(=O)N(COCC[Si](C)(C)C)c2ccccc2Br)CCC(C(C)(C)C)C1 (stereo not drawn) | 5.87 µM (inactive) | 16.6 µM (inactive) | 18.5 µM (inactive) | 10.6 µM (inactive) | 3.42 µM (inactive) | 13.6 µM (inactive) | 25.8 µM (inactive) | 6.81 µM (inactive) | 28.1 µM (inactive) | 14.1 µM (inactive) | 9.79 µM (inactive) | – | 22.7 µM (inactive) | 13.4 µM (inactive) | 12.8 µM (inactive) | 10.6 µM (inactive) | 5.32 µM (inactive) | 13.8 µM (inactive) | 9.77 µM (inactive) |
| CCCC1=NC(C(F)(F)F)(C(F)(F)F)N=C(N2CCOCC2)O1 | > 100 µM (inactive) | > 100 µM (inactive) | > 100 µM (inactive) | > 100 µM (inactive) | > 100 µM (inactive) | – | > 100 µM (inactive) | > 100 µM (inactive) | > 100 µM (inactive) | > 100 µM (inactive) | > 100 µM (inactive) | > 100 µM (inactive) | > 100 µM (inactive) | > 100 µM (inactive) | > 100 µM (inactive) | > 100 µM (inactive) | > 100 µM (inactive) | > 100 µM (inactive) | > 100 µM (inactive) |
| COc1ccc(C2CC(c3ccc4ccccc4c3O)=NN2)cc1OC (stereo not drawn) | 24.7 µM (inactive) | 61.8 µM (inactive) | – | 32.7 µM (inactive) | 15.6 µM (inactive) | 34.6 µM (inactive) | 76.4 µM (inactive) | 45 µM (inactive) | 23.5 µM (inactive) | 48.6 µM (inactive) | 74.1 µM (inactive) | 47.5 µM (inactive) | 14.9 µM (inactive) | 45.6 µM (inactive) | 58.5 µM (inactive) | 30.4 µM (inactive) | 38.6 µM (inactive) | 39.7 µM (inactive) | 57.8 µM (inactive) |
| Cn1c(-c2cccc(N)c2)[n+](C)c2ccccc21 | > 100 µM (inactive) | > 100 µM (inactive) | 60.3 µM (inactive) | > 100 µM (inactive) | > 100 µM (inactive) | > 100 µM (inactive) | > 100 µM (inactive) | > 100 µM (inactive) | > 100 µM (inactive) | – | > 100 µM (inactive) | > 100 µM (inactive) | 53.1 µM (inactive) | > 100 µM (inactive) | 57.3 µM (inactive) | > 100 µM (inactive) | > 100 µM (inactive) | > 100 µM (inactive) | > 100 µM (inactive) |
| O=C1C(=CNc2ccc([N+](=O)[O-])cc2)C(=O)N(c2ccccc2)C(=O)N1c1ccccc1 | > 100 µM (inactive) | > 100 µM (inactive) | > 100 µM (inactive) | > 100 µM (inactive) | > 100 µM (inactive) | > 100 µM (inactive) | – | 70.1 µM (inactive) | > 100 µM (inactive) | > 100 µM (inactive) | > 100 µM (inactive) | > 100 µM (inactive) | > 100 µM (inactive) | > 100 µM (inactive) | > 100 µM (inactive) | 71.6 µM (inactive) | > 100 µM (inactive) | > 100 µM (inactive) | > 100 µM (inactive) |
| CCN(CC)CCc1c2c(nc3ccccc13)C(=O)c1cccnc1C2=O | 3.24 µM (inactive) | 2.02 µM (inactive) | – | 0.345 µM (active) | 0.211 µM (active) | – | 1.8 µM (inactive) | 1.96 µM (inactive) | 2.4 µM (inactive) | 1.1 µM (active) | 2.37 µM (inactive) | 2.44 µM (inactive) | 1.97 µM (inactive) | 2.54 µM (inactive) | 0.209 µM (active) | 1.88 µM (inactive) | 0.325 µM (active) | 0.424 µM (active) | 1.38 µM (inactive) |
| CCOC(=O)c1c(C)n(Cc2ccc(Cl)cc2Cl)c2c1cc(O)c1[nH]c3c(c12)CCCC3 | < 0.01 µM (active) | 20.6 µM (inactive) | 23.6 µM (inactive) | 14.6 µM (inactive) | 0.136 µM (active) | 28.3 µM (inactive) | 22.1 µM (inactive) | 14.7 µM (inactive) | 18.9 µM (inactive) | 22.9 µM (inactive) | 18.5 µM (inactive) | 20.8 µM (inactive) | 16.8 µM (inactive) | 27.3 µM (inactive) | 20.5 µM (inactive) | 16.6 µM (inactive) | 40.7 µM (inactive) | 30.7 µM (inactive) | 19.3 µM (inactive) |
